Results from patent US12624034B2, “Non-covalent modifiers of AKT1 and uses thereof” (Terremoto Biosciences, Inc., priority 2023, dated 2026).
pIC50: −log10 of the molar value.

Key:
[1] = system: LAPC4 prostate cancer cells, which express the AKT1 E17K allele; test: Antiproliferative effects in LAPC4 cells (CellTiter Glo, 72 h); format: cell-based; settings: Homo sapiens, LAPC4, 72 h, read-out: LAPC4 proliferation IC50
Procedure, shortened: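 Growth inhibition was measured by CellTiter Glo ATP luminescence after 72 h compound exposure of 1,000 seeded cells/well. The cells were AKT1 E17K-expressing LAPC4 prostate cancer cells maintained in IMDM plus 12% FBS. IC50 values came from Hill-equation fits.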

AKT2 = molecular target: T1, AKT2 (Homo sapiens, UniProt P31751); test: Live cell AKT2 target engagement by NanoBRET competitive probe displacement in HEK293 cells; format: binding; settings: NanoBRET live cell target engagement, HEK293 cells, 2 h at 37° C.; read-out: AKT2 IC50
T1 construct: expressed in transfected cells; host or cells: HEK293
T1 sequence (P31751 whole entry): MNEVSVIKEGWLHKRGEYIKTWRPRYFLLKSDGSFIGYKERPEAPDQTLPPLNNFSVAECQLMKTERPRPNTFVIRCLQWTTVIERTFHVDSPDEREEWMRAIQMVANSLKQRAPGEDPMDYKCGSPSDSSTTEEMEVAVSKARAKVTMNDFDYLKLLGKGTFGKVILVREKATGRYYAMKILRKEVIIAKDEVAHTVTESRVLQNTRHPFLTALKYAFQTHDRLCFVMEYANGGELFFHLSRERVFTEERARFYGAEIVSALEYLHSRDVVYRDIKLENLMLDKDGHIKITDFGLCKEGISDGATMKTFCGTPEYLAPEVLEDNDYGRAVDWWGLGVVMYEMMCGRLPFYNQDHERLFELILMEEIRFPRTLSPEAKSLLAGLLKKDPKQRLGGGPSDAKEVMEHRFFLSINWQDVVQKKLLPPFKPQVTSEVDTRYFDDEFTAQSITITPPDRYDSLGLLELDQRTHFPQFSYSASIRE

AKT1 E17K = molecular target: T2, AKT1 E17K (Homo sapiens, UniProt P31749, E17K); test: Live cell AKT1 E17K target engagement by NanoBRET competitive probe displacement in HEK293 cells; format: binding; settings: NanoBRET live cell target engagement, HEK293 cells, 2 h at 37° C.
T2 construct: expressed in transfected cells; host or cells: HEK293
T2 sequence (P31749 whole entry E17K): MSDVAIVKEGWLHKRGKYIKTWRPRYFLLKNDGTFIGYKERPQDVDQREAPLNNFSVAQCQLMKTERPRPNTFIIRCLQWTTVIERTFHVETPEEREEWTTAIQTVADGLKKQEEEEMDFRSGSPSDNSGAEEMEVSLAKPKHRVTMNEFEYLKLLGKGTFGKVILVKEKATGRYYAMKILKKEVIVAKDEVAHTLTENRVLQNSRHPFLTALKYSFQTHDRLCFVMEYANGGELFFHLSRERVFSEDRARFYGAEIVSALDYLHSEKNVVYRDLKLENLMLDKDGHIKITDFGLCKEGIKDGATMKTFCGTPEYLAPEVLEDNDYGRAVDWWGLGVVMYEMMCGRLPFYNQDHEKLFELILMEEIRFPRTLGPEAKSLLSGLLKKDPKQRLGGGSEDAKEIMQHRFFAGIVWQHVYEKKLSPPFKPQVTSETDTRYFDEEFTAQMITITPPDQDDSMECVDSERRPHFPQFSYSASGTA
Procedure, shortened: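 IC50 derived by log(inhibitor)–response Hill fitting of BRET ratio (E600/E460), measured after adding substrate and extracellular NanoLuc inhibitor. Preceding step: 2 h, 37 °C incubation of transfected HEK293 cells (kinase–NanoLuc fusions) with diluted compound and ~EC50 ATP-competitive fluorescent tracer.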

AKT1 WT = molecular target: T3, AKT1 WT (Homo sapiens, UniProt P31749); test: Live cell AKT1 WT target engagement by NanoBRET competitive probe displacement in HEK293 cells; format: binding; settings: NanoBRET live cell target engagement, HEK293 cells, 2 h at 37° C.; read-out: AKT1 WT IC50
T3 construct: expressed in transfected cells; host or cells: HEK293
T3 sequence (P31749 whole entry): as the sequence (P31749 whole entry E17K) above, with K17E counted along it

pIC50 [1]: 5.87
pIC50 (AKT2): 6.86
pIC50 (AKT1 E17K): 6.77
pIC50 (AKT1 WT): 7.76
SMILES: Nc1ncccc1-c1nc2ccc(-n3cccn3)nc2n1-c1ccc2c(c1)CC[C@@H]2NC(=O)c1ccc(Cl)nc1 [Compound 45, (S)—N-(5-(2-(2-aminopyridin-3-yl)-5-(1H-pyrazol-1-yl)-3H-imidazo[4,5-b]pyridin-3-yl)-2,3-dihydro-1H-inden-1-yl)-6-chloronicotinamide]
